In US11000511B2, “Chemical compounds as antibiotics” (priority 2017, dated 2021):

Tests used:
[1] = target: T1, purified LasB protein from P. aeruginosa (Pseudomonas aeruginosa, UniProt P14756); experiment: Fluorometric assay to determine Ki (Assay 1); type: biochemical; conditions: Ki (μM) Assay 1, purified LasB, substrate Abz-Ala-Gly-Leu-Ala-p-Nitro-Benzyl-Amide 250 μM, Ki calculated from IC50; inhibitor 0.006 to 200 μM
T1 construct: purchased Merck or Charles River Laboratories
Description: (§1) Experiments were therefore conducted (1) to measure the potency of inhibition of compounds of the invention against purified Pseudomonas aeruginosa LasB enzyme and also experiments were conducted (2) to measure the ability of compounds of the invention to inhibit LasB-catalysed elastin degradation. The first assay uses a commercial fluorescent synthetic peptide and purified LasB enzyme. The LasB hydrolysis kinetics are measured allowing the determination of the IC50 and Ki of the inhibitors; the second is a more physiological assay using dialysed Pseudomonas aeruginosa supernatant as source of enzyme, plus its natural substrate Elastin. It is an “end point assay” that determines the percentage of LasB inhibition by each compound for one particular time point and inhibitor concentration. Technical details are described below:
This assay uses commercially available substrate (Abz-Ala-Gly-Leu-Ala-p-Nitro-Benzyl-Amide (Ex: 340 nm, Em: 415 nm) from Peptide International) and purified LasB protein from P. aeruginosa (provided by Merck or Charles River Laboratories). It is performed to determine LasB elastase activity and assess compound inhibition in 96-well plate format. Some compounds of Formula (I) were assessed using the method of Assay 1 (described below). Other compounds of Formula (I) were assessed using the alternative but equivalent method of Assay 2 (described below).
Method: 10 to 140 ng/ml purified LasB is incubated with 250 μM Abz-Ala-Gly-Leu-Ala-p-Nitro-Benzyl-Amide in 50 mM Tris-HCl pH 7.4, 2.5 mM CaCl2), 0.01% of Triton X100 at 37° C. LasB activity (corresponding to fluorescence emission induced by substrate hydrolysis) is measured over 30 min at 37° C. with a fluorescence plate reader such as the Perkin Elmer Envision or similar. Different range of inhibitor concentrations are routinely assessed depending of inhibitor potency from 0.006 to 200 μM (Assay 1; 2-fold dilutions series) or from 0.0016 to 200 μM (Assay 2; 2-fold dilutions series) in order to determine IC50.
The equation used to calculate the Ki from IC50 is: Ki=IC50/(1+([S]/Km)) where [S]=250 μM and Km=214 μM.

[2] = target: T2, LasB elastase activity in dialysed supernatant from P. aeruginosa strain PA01 (Pseudomonas aeruginosa, UniProt P14756); experiment: Elastin Congo Red assay to determine % inhibition (Assay 1); type: biochemical; conditions: read-out: Elastin hydrolysis % inhibition @ 50/25 μM inhibitor concentration Assay 1
T2 construct: uses as source of enzyme dialysed supernatant from P. aeruginosa; endogenous in cells; host or cells: P. aeruginosa strain PA01 culture supernatant, filtered and dialysed
T2 sequence (P14756 198-498): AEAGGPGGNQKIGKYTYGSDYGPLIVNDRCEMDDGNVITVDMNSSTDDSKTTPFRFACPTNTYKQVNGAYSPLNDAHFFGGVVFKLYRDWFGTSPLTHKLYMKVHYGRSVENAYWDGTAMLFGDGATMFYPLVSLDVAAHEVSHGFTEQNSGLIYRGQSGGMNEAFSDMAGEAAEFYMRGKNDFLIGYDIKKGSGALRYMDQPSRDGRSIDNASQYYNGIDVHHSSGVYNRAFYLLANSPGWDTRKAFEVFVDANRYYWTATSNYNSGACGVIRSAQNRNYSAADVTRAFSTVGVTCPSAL
Description: as §1
The Elastin assay uses as source of enzyme dialysed supernatant from P. aeruginosa and the elastin congo red as substrate. The natural LasB substrate, elastin, is complexed with the congo red dye (Elastin Congo Red, ECR). The elastolysis activity from the culture supernatant will degrade elastin and release the congo red dye into the supernatant. This red dye release can be measured with a spectrophotometer. Some compounds of Formula (I) were assessed using the method of Assay 1 (described below). Other compounds of Formula (I) were assessed using the alternative but equivalent method of Assay 2 (described below).
Method (Assay 1): To determine LasB elastase activity and assess compound inhibition, an overnight culture of P. aeruginosa strain PA01 is diluted thousand-fold in LB medium. This diluted solution is incubated during 19 hours in a shaking incubator. Culture supernatants are recovered by centrifugation and filtrated through a […] filter. These supernatants are dialysed (filtration molecules <20 kDa) into a 50 mM Tris pH 7.4, 2.5 mM CaCl2 solution at 4° C. under agitation for 24 hours. Supernatant dialysed is then mixed volume/volume with the ECR suspension (20 mg/mL of ECR in 100 mM Tris buffer supplemented with 1 mM CaCl2) supplemented with TritonX 100 (final concentration of 0.01%) in presence of different concentrations of compound (routinely 50 and 25 μM). The mixed reaction is then incubated for 24 hours in a 37° shaking incubator. As a negative control, the mixed supernatant is replaced by Tris solution (50 mM Tris pH 7.4, 2.5 mM CaCl2). The reaction supernatant is recovered by centrifugation and the release of congo red is measured by its absorbance at OD520. Percentage inhibition is determined using the following equation: (OD520 value of DMSO SN−OD520 value of LB)−(OD520 value of Compound SN−OD520 value of LB)/(OD520 value of DMSO SN−OD520 value of LB)×100.

T1 sequence (P14756 198-498): as above

Row | SMILES | Ki [1] [µM] | inhibition at 50 µM [2] [%]
1 | CN(C)CCOc1ccc2nc(CNC(=O)C3(CC(=O)O)Cc4ccccc4C3)sc2c1 [Example 110, 2-[2-[[6-[2-(dimethylamino)ethoxy]-1,3-benzothiazol-2-yl]methylcarbamoyl]indan-2-yl]acetic acid] | 0.3 to 2 | 30 to 60
2 | Cn1cnc(CNC(=O)C2(CC(=O)O)Cc3ccccc3C2)c1 [Example 21, 2-[2-[(1-methylimidazol-4-yl)methylcarbamoyl]indan-2-yl]acetic acid] | 2 to 10 | 30 to 60
3 | C[N+](C)(C)CCc1ccc2sc(CNC(=O)C3(CC(=O)[O-])Cc4ccccc4C3)nc2c1 [Example 98, 2-[2-[[5-[2-(trimethylammonio)ethyl]-1,3-benzothiazol-2-yl]methylcarbamoyl]indan-2-yl]acetate] | 0.3 to 2 | 
4 | CN1CC2(C1)CN(c1ccc3nc(CNC(=O)C4(CC(=O)O)Cc5ccccc5C4)sc3c1)C2 [Example 71, 2-[2-[[6-(6-methyl-2,6-diazaspiro[3.3]heptan-2-yl)-1,3-benzothiazol-2-yl]methylcarbamoyl]indan-2-yl]acetic acid] | < 0.3 | > 60
5 | NC1CN(c2ccc3nc(CNC(=O)C4(CC(=O)O)Cc5ccccc5C4)sc3c2)C1 [Example 100, 2-[2-[[6-(3-aminoazetidin-1-yl)-1,3-benzothiazol-2-yl]methylcarbamoyl]indan-2-yl]acetic acid] | < 0.3 | > 60
6 | O=C(O)CC1(C(=O)NCc2nc3c(F)cccc3s2)Cc2ccccc2C1 [Example 60, 2-(2-(((4-fluorobenzo[d]thiazol-2-yl)methyl)carbamoyl)-2,3-dihydro-1H-inden-2-yl)acetic acid] | < 0.3 | > 60
7 | O=C(O)CC1(C(=O)NCc2cc3ccccc3cn2)Cc2ccccc2C1 [Example 2, 2-[2-(3-isoquinolylmethylcarbamoyl)indan-2-yl]acetic acid] | 0.3 to 2 | 30 to 60
8 | O=C(O)CC1(C(=O)NCc2nc3ccccc3s2)Cc2ccccc2C1 [Example 10, 2-(2-{[(1,3-Benzothiazol-2-yl)methyl]carbamoyl}-2,3-dihydro-1H-inden-2-yl)acetic acid] | < 0.3 | > 60
9 | NCC1CN(c2ccc3nc(CNC(=O)C4(CC(=O)O)Cc5ccccc5C4)sc3c2)C1 [Example 99, 2-[2-[[6-[3-(aminomethyl)azetidin-1-yl]-1,3-benzothiazol-2-yl]methylcarbamoyl]indan-2-yl]acetic acid] | < 0.3 | > 60
10 | CN(C)C[C@H]1C[C@@H](c2ccc3nc(CNC(=O)C4(CC(=O)O)Cc5ccccc5C4)sc3c2)C1 [Example 93, 2-(2-(((6-((1s,3s)-3-((dimethylamino)methyl)cyclobutyl)benzo[d]thiazol-2-yl)methyl)carbamoyl)-2,3-dihydro-1H-inden-2-yl)acetic acid] | < 0.3 | > 60
11 | O=C(O)CC1(C(=O)NCc2nc3c(I)cccc3s2)Cc2ccccc2C1 [Example 63, 2-(2-(((4-iodobenzo[d]thiazol-2-yl)methyl)carbamoyl)-2,3-dihydro-1H-inden-2-yl)acetic acid] | < 0.3 | > 60
12 | Cn1c(CNC(=O)C2(CC(=O)O)Cc3ccccc3C2)cc2ccccc21 [Example 9, 2-[2-[(1-methylindol-2-yl)methylcarbamoyl]indan-2-yl]acetic acid] | < 0.3 | > 60
13 | CN(C)CC#Cc1ccc2sc(CNC(=O)C3(CC(=O)O)Cc4ccccc4C3)nc2c1 [Example 88, 2-[2-[[5-[3-(dimethylamino)prop-1-ynyl]-1,3-benzothiazol-2-yl]methylcarbamoyl]indan-2-yl]acetic acid] | < 0.3 | > 60
14 | C[N+](C)(C)Cc1ccc2sc(CNC(=O)C3(CC(=O)[O-])Cc4ccccc4C3)nc2c1 [Example 85, 2-[2-[[5-[(trimethylammonio)methyl]-1,3-benzothiazol-2-yl]methylcarbamoyl]indan-2-yl]acetate] | 0.3 to 2 | 
15 | NCCc1ccc2sc(CNC(=O)C3(CC(=O)O)Cc4ccccc4C3)nc2c1 [Example 83, 2-[2-[[5-(2-aminoethyl)-1,3-benzothiazol-2-yl]methylcarbamoyl]indan-2-yl]acetic acid] | 0.3 to 2 | 
16 | O=C(O)CC1(C(=O)NCc2nc3ccccc3s2)Cc2cc(Cl)c(Cl)cc2C1 [Example 121, 2-(2-((benzo[d]thiazol-2-ylmethyl)carbamoyl)-5,6-dichloro-2,3-dihydro-1H-inden-2-yl)acetic acid] | 0.3 to 2 | 
17 | C[N+](C)(C)CCNc1ccc2sc(CNC(=O)C3(CC(=O)[O-])Cc4ccccc4C3)nc2c1 [Example 77, 2-[2-[[5-[2-(trimethylammonio)ethylamino]-1,3-benzothiazol-2-yl]methylcarbamoyl]indan-2-yl]acetate] | 0.3 to 2 | 
18 | CN(C)Cc1ccc2nc(CNC(=O)C3(CC(=O)O)Cc4ccccc4C3)sc2c1 [Example 81, 2-[2-[[6-[(dimethylamino)methyl]-1,3-benzothiazol-2-yl]methylcarbamoyl]indan-2-yl]acetic acid] | 2 to 10 | 
19 | CN(C)C1CC(Oc2ccc3nc(CNC(=O)C4(CC(=O)O)Cc5ccccc5C4)sc3c2)C1 (stereo not shown) [Example 79, 2-[2-[[6-[3-(dimethylamino)cyclobutoxy]-1,3-benzothiazol-2-yl]methylcarbamoyl]indan-2-yl]acetic acid] | 0.3 to 2 | 
20 | CN(C)CCc1ccc2sc(CNC(=O)C3(CC(=O)O)Cc4ccccc4C3)nc2c1 [Example 97, 2-[2-[[5-[2-(dimethylamino)ethyl]-1,3-benzothiazol-2-yl]methylcarbamoyl]indan-2-yl]acetic acid] | 0.3 to 2 | 
21 | CN(C)Cc1ccc2sc(CNC(=O)C3(CC(=O)O)Cc4ccccc4C3)nc2c1 [Example 84, 2-[2-[[5-[(dimethylamino)methyl]-1,3-benzothiazol-2-yl]methylcarbamoyl]indan-2-yl]acetic acid] | 0.3 to 2 | 
22 | NC1CC(Oc2ccc3nc(CNC(=O)C4(CC(=O)O)Cc5ccccc5C4)sc3c2)C1 (mixture of isomers) [Example 78, 2-[2-[[6-(3-aminocyclobutoxy)-1,3-benzothiazol-2-yl]methylcarbamoyl]indan-2-yl]acetic acid] | 0.3 to 2 | 
23 | C[N+](C)(C)Cc1ccc2nc(CNC(=O)C3(CC(=O)[O-])Cc4ccccc4C3)sc2c1 [Example 82, 2-[2-[[6-[(trimethylammonio)methyl]-1,3-benzothiazol-2-yl]methylcarbamoyl]indan-2-yl]acetate] | 2 to 10 | 
24 | O=C(O)CC1(C(=O)NCCc2nc3ccccc3o2)Cc2ccccc2C1 [Example 31, 2-[2-[2-(1,3-benzoxazol-2-yl)ethylcarbamoyl]indan-2-yl]acetic acid] | 2 to 10 | 
25 | CC(C)(N)c1nnc([C@H](Cc2c[nH]c3ccccc23)NC(=O)C2(CC(=O)O)Cc3ccccc3C2)o1 [Example 119, (S)-2-(2-((1-(5-(2-aminopropan-2-yl)-1,3,4-oxadiazol-2-yl)-2-(1H-indol-3-yl)ethyl)carbamoyl)-2,3-dihydro-1H-inden-2-yl)acetic acid] | 0.3 to 2 | 
